Experiment [1] relates to β-catenin-TCF-mediated reporter transcription activity in Colo 205 cells. Put plainly: Colo 205 reporter assay (TCF/LEF luciferase). The conditions noted are these: Homo sapiens, COLO 205, 5 h, Colo 205 TCF/LEF luciferase reporter, five hours after addition of compound; read-out: TCF reporter Colo205 IC50. Type of experiment: cell-based. The procedure, abridged:
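Luciferase signal from a TCF/LEF-driven reporter, stably integrated in Colo 205 colon cancer cells, was measured 5 h after compound addition.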
Background: A reporter such as luciferase makes a cellular process visible.

Experiment [2] has as its system Hek293 WFS1 over-expressor. Put plainly: In vitro cell viability (CellTiter-Glo), Hek293 WFS1 over-expressor. Type of experiment: cell-based. The conditions noted are these: for IC50: Homo sapiens. Here is the method:
WFS1 cDNA is amplified from clone RC202901 (Origene Technologies) with primers 5′-TCCGCGGCCCCAAGCTTATCGCCATGGACTCCAACACTGC-3′ (SEQ ID NO: 1), 5′-GATGGGCCCAGATCTCGAGTCAGGCCGCCGACAGGAATG-3′ (SEQ ID NO: 2) and cloned into a retroviral mammalian expression vector pCLPCX using HD Infusion (CLONTECH) at Hind3-Xhol sites using standard procedures. The resulting clone is identified as pCLPCX_WFS1.
HEK293 (ATCC, catalog #CRL-1573) cells are plated in 10 cm dishes (Corning, product #430167) into 10 mL of complete DMEM cell culture media [DMEM (Life Technologies, product #11960-051) media supplemented with 10% FBS (Hyclone, catalog #SH30071.03), antimycotic/antibiotic (Life Technologies, product #15240-062), and Glutamax (Life Technologies, product #35050-061)] at 3×10^6 cells per dish. Cells are allowed to attach and grow overnight at 37° C. in humidified 5% CO2. Cells are co-transfected with pVSV-G, pCMV-Gag/Pol and pCLPCX_WFS1 using Fugene 6 (Promega, catalog #E2691) according to manufacturer's protocol. Separately, cells are co-transfected with pVSV-G, pCMV-Gag/Pol and pCLPCX to produce control retrovirus. Cell culture media containing retrovirus (viral supernatant) is collected at 48 and 72 hours following transfection, filtered through a 0.4 uM filter, and stored at −80° C.
HEK293 cells are plated in 6 well plates (Corning, product #3516) in 2 mL of complete DMEM cell culture media at 1×10^5 cells well and allowed to attach and grow overnight at 37° C. in humidified 5% CO2. The following day, the media is replaced with viral supernatant to which 10 ug/ml of Polybrene® (Santa Cruz Biotech, catalog #sc-134220) is added. Viral supernatant is replaced 24 hours later with complete DMEM media. Transduced cells are selected in complete DMEM cell culture media containing 1 microgram/mL of puromycin (Life Technologies, catalog #A1113803).
HEK293 cells containing empty pCLPCx vector (HEK293 empty), HEK293 cells stably over-expression WFS1 (HEK293 WFS1), HepG2, and HepG2 cells where WFS1 was depleted via CRISPR/Cas9 (HepG2 WFS1 KO) cells were plated into 96-well black plates (Corning, product #3904) in 100 microliters of complete DMEM cell culture media [DMEM (Life Technologies, product #11960-051) media supplemented with 10% FBS (Hyclone, catalog #SH30071.03), antimycotic/antibiotic (Life Technologies, product #15240-062), and Glutamax (Life Technologies, product #35050-061)] at 1,000 (HEK293) or 5,000 (HepG2) cells per well. Cells were allowed to attach and grow overnight, after which compounds are added at various concentrations. Cell viability was assessed 96 hrs after compound addition with CellTiter-Glo reagent (Promega, catalog #G7570) according to manufacturer's protocol and measurement on a Pherastar luminescence plate reader (BMG Labtech).
The IC50s for the viability of both the Hek293 empty vector and WFS1 over-expressing cells are summarized in Table 47: A<0.06 μM; 0.06 μM≤B<0.6 μM; 0.6 μM≤C<3.0 μM; D≥3.0 μM.
Background: Cellular ATP, detected with luciferase, serves as a proxy for viable cell number.

Where [3] appears, read: HEK293, Hek293 WFS1 over-expressing cells, read-out: Hek293 WFS1 viability.

Molecules are shown by their SMILES. Where two headings read alike, the source gives them in different places. Bounds are passed on as bounds.

The source of these data is patent US20230312587A1, “PTERIDINONE COMPOUNDS AND USES THEREOF” (Vertex Pharmaceutical Incorporated, priority 2018, published 2023).

On to `Cc1ccc(Cn2cc(CNc3nc(C)c4c(n3)N(C)[C@@H](C)C(=O)N4)cn2)cn1` [Compound 173, (7S)-4,7,8-trimethyl-2-(((1-((6-methylpyridin-3-yl)methyl)-1H-pyrazol-4-yl)methyl)amino)-7,8-dihydropteridin-6(5H)-one], for which the IC50 in experiment [1] was 1000 to 5000 nM; in experiment [2] (setting [3]), 60 to 600 nM.

In the case of `Cc1nc(NCc2cnn([C@@H](C)c3ccc(C(F)(F)F)nc3)c2)nc2c1NC(=O)[C@H](C)N2C` [Compound 174, (7S)-4,7,8-Trimethyl-2-(((1-((S)-1-(6-(trifluoromethyl)pyridin-3-yl)ethyl)-1H-pyrazol-4-yl)methyl)amino)-7,8-dihydropteridin-6(5H)-one], the IC50 is less than 300 nM in experiment [1] and less than 60 nM in experiment [2] (setting [3]).

With `CC[C@H]1C(=O)Nc2c(C)nc(NCc3cnn(Cc4ccc(C(F)(F)F)nc4)c3)nc2N1C` [Compound 186, (7S)-7-ethyl-4,8-dimethyl-2-(((1-((6-(trifluoromethyl)pyridin-3-yl)methyl)-1H-pyrazol-4-yl)methyl)amino)-7,8-dihydropteridin-6(5H)-one], the results for the IC50 in experiment [1] and in experiment [2] (setting [3]) were less than 300 nM and less than 60 nM, respectively.

On to `Cc1nc(C(F)(F)F)ccc1Cn1cc(CNc2nc(C)c3c(n2)N(C)[C@@H](C)C(=O)N3)cn1` [Compound 188, (S)-4,7,8-trimethyl-2-(((1-((2-methyl-6-(trifluoromethyl)pyridin-3-yl)methyl)-1H-pyrazol-4-yl)methyl)amino)-7,8-dihydropteridin-6(5H)-one], for which the figures for the IC50 in experiment [1] and in experiment [2] (setting [3]) were less than 300 nM and less than 60 nM, respectively.

For the molecule `Cc1nc(NCc2cnn(Cc3ccnc(C(F)(F)F)c3)c2)nc2c1NC(=O)[C@H](C)N2C` [Compound 207, (7S)-4,7,8-trimethyl-2-(((1-((2-(trifluoromethyl)pyridin-4-yl)methyl)-1H-pyrazol-4-yl)methyl)amino)-7,8-dihydropteridin-6(5H)-one], the figures for the IC50 in experiment [1] and in experiment [2] (setting [3]) were less than 300 nM and less than 60 nM, respectively.

Consider `Cc1nc(NCc2cnn(Cc3ccc(F)cc3)c2)nc2c1NC(=O)C1(CC1)N2` [Compound 222, 2′-(((1-(4-fluorobenzyl)-1H-pyrazol-4-yl)methyl)amino)-4′-methyl-5′,8′-dihydro-6′H-spiro[cyclopropane-1,7′-pteridin]-6′-one], for which the IC50 in experiment [1] is not below 5000 nM; in experiment [2] (setting [3]), not below 3000 nM.

Consider `CN1C(=O)C(C)(C)N(C)c2nc(NCc3cnn(Cc4cccnc4C(F)(F)F)c3)ncc21` [Compound 237, 5,7,7,8-Tetramethyl-2-(((1-((2-(trifluoromethyl)pyridin-3-yl)methyl)-1H-pyrazol-4-yl)methyl)amino)-7,8-dihydropteridin-6(5H)-one], for which the IC50 in experiment [1] fell in the range of 300 to 1000 nM; in experiment [2] (setting [3]) it was 60 to 600 nM.

For the molecule `Cc1nc(N[C@H]2C[C@H](Oc3cc(F)c(F)c(F)c3)C2)nc2c1NC(=O)[C@H](C)N2C` [Compound 246, (7S)-4,7,8-trimethyl-2-((trans-3-(3,4,5-trifluorophenoxy)cyclobutyl)amino)-7,8-dihydropteridin-6(5H)-one], the IC50 is less than 300 nM in experiment [1] and less than 60 nM in experiment [2] (setting [3]).

`Cc1nc(N[C@H]2C[C@@H](Oc3cc(F)c(F)c(F)c3)C2)nc2c1NC(=O)[C@H](C)N2C` [Compound 247, (7S)-4,7,8-trimethyl-2-((cis-3-(3,4,5-trifluorophenoxy)cyclobutyl)amino)-7,8-dihydropteridin-6(5H)-one]: the results for the IC50 in experiment [1] and in experiment [2] (setting [3]) were 1000 to 5000 nM and not below 3000 nM, respectively.

As for `Cc1nc(N[C@H]2C[C@H](Oc3ccc(F)cc3)C2)nc2c1N(C)C(=O)[C@H](C)N2C` [Compound 250, (7S)-2-((trans-3-(4-fluorophenoxy)cyclobutyl)amino)-4,5,7,8-tetramethyl-7,8-dihydropteridin-6(5H)-one], the IC50 fell in the range of 300 to 1000 nM in experiment [1] and 60 to 600 nM in experiment [2] (setting [3]).

In the case of `Cc1nc(N[C@H]2C[C@H](Oc3cc(F)c(F)c(F)c3)C2)nc2c1N(C)C(=O)[C@H](C)N2C` [Compound 253, (7S)-4,5,7,8-tetramethyl-2-((trans-3-(3,4,5-trifluorophenoxy)cyclobutyl)amino)-7,8-dihydropteridin-6(5H)-one], the IC50 in experiment [1] was less than 300 nM; in experiment [2] (setting [3]), less than 60 nM; in experiment [2] (HEK293, cell viability, Hek293 WFS1 over-expressor, read-out: IC50) it was 12 nM; in experiment [2] (HEK293, cell viability, Hek293 WFS1 over-expressor, read-out: IC50 class) it was less than 60 nM. Moreover, the “reduction in the IC50 on over-expression of WFS1 in Hek293 cells” value in experiment [2] (cell viability, WFS1 over-expressor vs empty vector) is reported as more than 1000 fold.

Regarding `Cc1nc(N[C@H]2C[C@@H](COc3cc(F)c(F)c(F)c3)C2)nc2c1NC(=O)[C@H](C)N2C` [Compound 257, (7S)-4,7,8-Trimethyl-2-((cis-3-((3,4,5-trifluorophenoxy)methyl)cyclobutyl)-amino)-7,8-dihydropteridin-6(5H)-one], the IC50 in experiment [1] is less than 300 nM; in experiment [2] (setting [3]), less than 60 nM.

`Cc1nc(N[C@H]2C[C@H](COc3cc(F)c(F)c(F)c3)C2)nc2c1NC(=O)[C@H](C)N2C` [Compound 258, (7S)-4,7,8-trimethyl-2-((trans-3-((3,4,5-trifluorophenoxy)methyl)-cyclobutyl)amino)-7,8-dihydropteridin-6(5H)-one]: the IC50 in experiment [1] is 1000 to 5000 nM; in experiment [2] (setting [3]), 60 to 600 nM.

For the molecule `Cc1nc(N[C@@H]2CC[C@@H](Oc3cc(F)c(F)c(F)c3)C2)nc2c1N(C)C(=O)[C@H](C)N2C` [Compound 272, (S)-4,5,7,8-tetramethyl-2-(((1R,3R)-3-(3,4,5-trifluorophenoxy)cyclopentyl)amino)-7,8-dihydropteridin-6(5H)-one], the IC50 in experiment [1] was less than 300 nM; in experiment [2] (setting [3]), less than 60 nM.

On to `Cc1nc(N[C@H]2C[C@@H](Sc3ccc(F)cc3)C2)nc2c1N(C)C(=O)[C@H](C)N2C` [Compound 305, (7S)-2-((cis-3-((4-fluorophenyl)thio)cyclobutyl)amino)-4,5,7,8-tetramethyl-7,8-dihydropteridin-6(5H)-one], for which the IC50 in experiment [1] lay within 300 to 1000 nM; in experiment [2] (setting [3]) it was 60 to 600 nM.

Consider `Cc1nc(N[C@H]2C[C@H](Sc3ccc(F)cc3)C2)nc2c1N(C)C(=O)[C@H](C)N2C` [Compound 307, (7S)-2-((trans-3-((4-fluorophenyl)thio)cyclobutyl)amino)-4,5,7,8-tetramethyl-7,8-dihydropteridin-6(5H)-one], for which the results for the IC50 in experiment [1] and in experiment [2] (setting [3]) were 1000 to 5000 nM and 60 to 600 nM, respectively.

In the case of `Cc1nc(N[C@H]2C[C@H](Oc3ccc(C(F)(F)F)nc3)C2)nc2c1NC(=O)[C@H](C)N2C` [Compound 324, (7S)-4,7,8-trimethyl-2-((trans-3-((6-(trifluoromethyl)pyridin-3-yl)oxy)cyclobutyl)amino)-7,8-dihydropteridin-6(5H)-one], the results for the IC50 in experiment [1] and in experiment [2] (setting [3]) were less than 300 nM and less than 60 nM, respectively.

Turning to `Cc1nc(N[C@H]2C[C@H](Sc3cc(F)c(F)c(F)c3)C2)nc2c1NC(=O)[C@H](C)N2C` [Compound 329, (7S)-4,7,8-trimethyl-2-((trans-3-((3,4,5-trifluorophenyl)thio)-cyclobutyl)amino)-7,8-dihydropteridin-6(5H)-one], the IC50 in experiment [1] was less than 300 nM; in experiment [2] (setting [3]), less than 60 nM.

As for `Cc1nc(N[C@H]2C[C@@H](Sc3cc(F)c(F)c(F)c3)C2)nc2c1NC(=O)[C@H](C)N2C` [Compound 332, (7S)-4,7,8-trimethyl-2-((cis-3-((3,4,5-trifluorophenyl)thio)cyclobutyl)amino)-7,8-dihydropteridin-6(5H)-one], the IC50 was less than 300 nM in experiment [1] and less than 60 nM in experiment [2] (setting [3]).
